Reference: paper PMC10892836, “Hybrid Molecules of Azithromycin with Chloramphenicol and Metronidazole: Synthesis and Study of Antibacterial Properties” (Pharmaceuticals, 2024)
Values after ≈ are worked out from the molar mass of the structure shown. Values joined by “and” are separate entries in the source; they are usually repeats but may differ in a detail not shown here. Identical values can stand only once.

Experiments:
[1] = system: Streptococcus pneumoniae ATCC 6305; experiment: MIC, broth microdilution (CLSI); type: cell-based; details: ATCC6305, S. pneumoniae ATCC 6305, Table S3
Method: To evaluate the antimicrobial activity of hybrid molecules, clinical and reference strains obtained from the Laboratory of Medical Microbiology of the State Scientific Center of Antibiotics (Moscow, Russia) were used. The activity of azithromycin derivatives conjugated with chloramphenicol was tested on the following reference strains: Streptococcus pneumoniae ATCC 49619, Staphylococcus aureus ATCC 29213, and Escherichia coli ATCC 25922. Additionally, azithromycin derivatives conjugated with metronidazole were tested on the Streptococcus agalactiae 1Cp strain, Streptococcus pneumoniae ATCC 6305 strain (see Table S3, Supplementary Materials), on the anaerobic Gram-positive Clostridium sporogenes ATCC 19404 strain, and Propionibacterium acnes 55 clinical isolate.
Minimum inhibitory concentration (MIC) values for facultative anaerobic bacteria were determined using the broth microdilution method outlined in the CLSI guidelines. Initially, all compounds were dissolved in dimethyl sulfoxide (DMSO) to achieve a concentration of 10 mg/mL. Subsequently, they were diluted with the Mueller–Hinton nutrient broth (MHB) supplemented with 5% defibrinated horse blood (for Streptococcus spp.) to a concentration of 64 μg/mL. […]

E. coli ΔtolC = experiment: MIC, broth microdilution, E. coli ΔtolC panel; type: cell-based; details: for MIC: Escherichia coli
Excerpt: The E. coli JW5503 strain with a deletion of the tolC gene (referred to here as E. coli ΔtolC) was kindly provided by Prof. Hironori Niki, National Institute of Genetics, Japan. The E. coli BW25113 strain with a partial deletion of the lptD gene, codons 330 to 352 (referred to here as E. coli lptD^mut) was kindly provided by Prof. Alexander S. Mankin, University of Illinois, Chicago, IL, USA [44]. The E. coli ΔtolC strain was transformed with the pDualrep2 (Amp^R) plasmid, whereas the E. coli lptD^mut strain was transformed with the pDualrep2 (Kan^R) plasmid (not yet published). Both E. coli strains were grown at 37 °C in Luria–Bertani (LB) medium supplemented with either 100 μg/mL ampicillin or 50 μg/mL kanamycin.
(§1) MIC values for a panel of E. coli ΔtolC strains were determined via the broth microdilution assay as described here with minor modifications. Briefly, the overnight E. coli culture was diluted to an OD600 of 0.01 in the fresh LB medium supplied with 100 μg/mL ampicillin, if required. Then, the cells were additionally incubated for 1–1.5 h at 37 °C with shaking at 200 rpm (Shaker-Incubator ES-20/80, BioSan, Riga, Latvia). Meanwhile, 100 μL of the liquid growth medium was placed in each well of a 96-well sterile plate (200 μL was placed in column 1). Solutions of tested compounds were added in the first column of the plate at 2 times the final concentration of 200 μg/mL. Then, 2-fold serial dilutions were performed. Immediately before use, bacterial inoculum was diluted (1:100) in the growth medium, and 100 μL of it was transferred in each well except for the sterility control column. The plate was incubated overnight (16–20 h) at 37 °C with constant shaking at 200 rpm (Shaker-Incubator ES-20/80, BioSan, Riga Latvia). Cell growth was assessed by scanning the OD600 with a VICTOR X5 Multilabel Plate Reader (PerkinElmer, Waltham, MA, USA).
(§2) Minimum inhibitory concentration (MIC) was defined as the lowest concentration of a chemical compound that inhibits the visible growth of the bacterial strain. At least three replicates of MIC measurements were performed.

70S E. coli ribosomes = experiment: Competition-binding assay with BODIPY-ERY (fluorescence anisotropy); details: displacement of BODIPY-ERY; means, 95% confidence intervals; read-out: Apparent dissociation constant KD
Method: Affinity of compounds to the 70S E. coli ribosomes (isolated from the E. coli MRE600 strain according to a published procedure) was evaluated with a competition-binding assay using fluorescently labeled erythromycin (BODIPY-ERY) as described earlier. Briefly, BODIPY-ERY (16 nM) was mixed with ribosomes (34 nM) in 384-well plates in the buffer containing 20 mM HEPES-KOH (pH 7.5), 50 mM NH4Cl, 10 mM Mg(CH3CO2)2, 4 mM β-mercaptoethanol, and 0.05% (v/v) Tween-20. Solutions of the tested compounds were added to the obtained complexes to final concentrations from 1 to 1000 nM and incubated for 2 h at 30 °C. The values of fluorescence anisotropy were obtained using the VICTOR X5 Multilabel Plate Reader (PerkinElmer, Waltham, MA, USA). Filters of 485 and 535 nm were used for excitation and emission, respectively. To calculate the apparent dissociation constants, the assumption that the competitive equilibrium binding of two ligands occurs at a single binding site was used. For each compound, at least 2 replicates were performed. Values of apparent dissociation constants are given as means with 95% confidence intervals. The results were visualized using the GraphPad Prism software (version 8.0.1).

[2] = system: cell-free bacterial translation system based on the E. coli S30 lysate; experiment: In vitro translation in a cell-free bacterial system (firefly luciferase synthesis); type: biochemical; details: final concentration 5 μM; water control = 100%
Method: The inhibition of firefly luciferase (Fluc) synthesis by new azithromycin derivatives was assessed with the E. coli S30 Extract System for Linear Templates (Promega, Madison, WI, USA). Each reaction (5 μL total volume) was supplied with 0.1 mM mixture of all canonical amino acids, 4 U of RiboLock RNase Inhibitor (Thermo Fisher Scientific, Waltham, MA, USA), 0.1 mM of D-luciferin (Sigma-Aldrich, Burlington, MA, USA), 50 ng of firefly luciferase (Fluc) mRNA, and a chemical compound at a final concentration, as indicated in the main text, or nuclease-free water instead. Before the addition of mRNA, reaction tubes were pre-incubated at RT for 5 min and then placed back on ice. After the addition of mRNA, reaction mixtures were immediately subjected to continuous chemiluminescence measurement using the VICTOR X5 Multilabel Plate Reader (PerkinElmer, Waltham, MA, USA) at 37 °C for 30 min. Maximal rates of the firefly luciferase (Fluc) accumulation were calculated using the OriginPro 7.5 software. The values were normalized to a positive control (nuclease-free water, assigned a value of 100%). The results were visualized using the QtiPlot software (version 0.9.8.9).

[3] = system: E. coli ΔtolC pErmCL-ErmC; experiment: MIC, broth microdilution, E. coli ΔtolC panel; type: cell-based; details: for MIC: Escherichia coli
Method: In order to create the construct pErmCL-ErmC, the vector backbone was amplified using pZa-fwd (5′-TAAGAATTCTCTAGCCCG-3′) and pZa-rev (5′-[…]-3′) primers, and the pERMZα plasmid as a template. The ermC gene was amplified from the pERMCTP plasmid with ErmC-fwd (5′-[…]-3′) and ErmC-rev (5′-TAGGCGGGCTAGAGAATTC-3′) primers. The joining of two DNA fragments was performed using the NEBuilder® HiFi DNA Assembly Master Mix (New England Biolabs, Ipswich, MA, USA). Sequences of intermediate products and the final construct were confirmed by Sanger sequencing with appropriate primers.
(§3) The E. coli ΔtolC strain was also transformed with the pErmC, pErmCL-ErmC, and pERMZα plasmids. The resulting strains were grown at 37 °C in LB medium supplied with 100 μg/mL ampicillin.
as §1, §2

[4] = system: Staphylococcus aureus ATCC 29213; experiment: MIC, broth microdilution (CLSI); type: cell-based; details: ATCC29213, S. aureus ATCC 29213
Method: (§4) Minimum inhibitory concentration (MIC) values for facultative anaerobic bacteria were determined using the broth microdilution method outlined in the CLSI guidelines. Initially, all compounds were dissolved in dimethyl sulfoxide (DMSO) to achieve a concentration of 10 mg/mL. Subsequently, they were diluted with the Mueller–Hinton nutrient broth (MHB) supplemented with 5% defibrinated horse blood (for Streptococcus spp.) to a concentration of 64 μg/mL. Following 2-fold serial dilutions of the substances, bacterial cultures in the log growth phase were added to 96-well plates at a concentration of 2.5–5 × 10^5 CFU/mL, and the plates were incubated at 37 °C for 16–20 h.
as §2

[5] = system: Escherichia coli ATCC 25922; experiment: MIC, broth microdilution (CLSI); type: cell-based; details: ATCC25922, E. coli ATCC 25922
Method: as §4, §2

[6] = system: Streptococcus pneumoniae ATCC 49619; experiment: MIC, broth microdilution (CLSI); type: cell-based
Method: as §4, §2

[7] = system: Streptococcus agalactiae 1Cp; experiment: MIC, broth microdilution (CLSI); type: cell-based; details: S. agalactiae 1Cp
Method: as §4, §2

[8] = system: ribosome stalling on ermCL mRNA; experiment: Toe-printing (primer extension inhibition) analysis on ermCL mRNA; type: biochemical; details: 50 μM (chloramphenicol 30 μM)
Method: The toe-printing (primer extension inhibition) analysis of azithromycin derivatives was carried out essentially as previously described with some minor modifications, as indicated below. The DNA template ErmCL was generated by PCR using two overlapping primers, ErmCL-fwd (5′-[…]-3′) and ErmCL-rev (5′-[…]-3′). Before the addition of the DNA template to reaction mixtures at the in vitro translation step, tubes were pre-incubated at RT for 5 min. Moreover, phenol-chloroform extraction of reverse transcription products was replaced with DNA purification using the QIAquick® PCR Purification Kit (Qiagen, Hilden, Germany) according to the manufacturer’s protocol.
Figure 4 Toe-printing (or primer extension inhibition) analysis of azithromycin derivatives on ermCL mRNA. Ribosome stalling is detected via reverse transcription in a cell-free bacterial transcription–translation coupled system. The toe-printing bands are marked with colored arrowheads, and the A-site codons (except for the start codon, P-site codon is indicated) occupied by the stalled ribosomes are indicated in the mRNA sequence with the corresponding colors. The stop codon is marked with an asterisk. All compounds but chloramphenicol (CLM) were tested at 50 μM. Chloramphenicol (CLM) was tested at 30 μM. DMSO was used as a negative control at 0.25% final concentration. Thiostrepton (THS) was used to indicate the translation start site.

[9] = system: Clostridium sporogenes ATCC 19404; experiment: MIC, agar dilution, anaerobic bacteria (CLSI M11-A9); type: cell-based; details: ATCC19404, C. sporogenes ATCC 19404, anaerobic
Method: The antimicrobial activity against anaerobic bacteria was evaluated using the agar dilution method in accordance with the CLSI document M11-A9 [58]. Twofold serial dilutions of compounds, at 10 times the desired concentration, were prepared in water and diluted (1:10) with the Brucella Agar medium containing 5% defibrinated horse blood, 5 mg/L hemin, and 1 mg/L vitamin K. The resulting plates were inoculated with approximately 10^5 CFU per spot using a replicator and incubated anaerobically at 36 °C for 48 h.
as §2

E. coli ΔtolC pERMZα = experiment: MIC, broth microdilution, E. coli ΔtolC panel; type: cell-based; details: Escherichia coli
Method: as §3, §1, §2

E. coli ΔtolC pErmC = experiment: MIC, broth microdilution, E. coli ΔtolC panel; type: cell-based; details: Escherichia coli
Method: as §3, §1, §2

[10] = system: Propionibacterium acnes 55; experiment: MIC, agar dilution, anaerobic bacteria (CLSI M11-A9); type: cell-based; details: Cutibacterium acnes; P. acnes 55, anaerobic clinical isolate
[11] = ATCC49619, S. pneumoniae ATCC 49619, Tables 2 and 3

SMILES: CC[C@H]1OC(=O)[C@H](C)[C@@H](O[C@H]2C[C@@](C)(OC)[C@@H](O)[C@H](C)O2)[C@H](C)[C@@H](O[C@@H]2O[C@H](C)C[C@H](N(C)C)[C@H]2O)[C@](C)(O)C[C@@H](C)CN(C)[C@H](C)[C@@H](O)[C@]1(C)O [AZT, azithromycin]
- MIC [1]: 0.03 µg/mL (≈ 0.0401 µM)
- MIC (E. coli ΔtolC): 0.8 µg/mL (≈ 1.07 µM)
- Kd (70S E. coli ribosomes): 0.4 ± 0.1 nM
- Relative luciferase activity (relative maximal rate of Fluc accumulation) [2]: 0.3%
- Fold increase in the MIC value on E. coli ΔtolC pErmCL-ErmC compared to E. coli ΔtolC [3]: 4 fold
- MIC [3]: 3.1 µg/mL (≈ 4.14 µM)
- MIC [4]: 0.5 µg/mL (≈ 0.668 µM)
- MIC [5]: 2 µg/mL (≈ 2.67 µM)
- MIC ([6]; ATCC49619, S. pneumoniae ATCC 49619, Table S3, comparison with 2′-O-deacetyl metabolites): 0.03 µg/mL
- MIC [6, 11]: 0.06 µg/mL (≈ 0.0801 µM)
- MIC ([7]; Table 3): 0.015 µg/mL (≈ 0.02 µM)
- MIC ([7]; Table S3, comparison with 2′-O-deacetyl metabolites): 0.03 µg/mL
- Ribosome stalling pattern on ermCL mRNA [8]: induces ribosome stalling when GUA (Val) or AGC (Ser) codons enter the A-site of the ribosome
- MIC [9]: 4 µg/mL (≈ 5.34 µM)
- MIC (E. coli ΔtolC pERMZα): 0.8 µg/mL (≈ 1.07 µM)
- MIC (E. coli ΔtolC pErmC): > 200 µg/mL
- MIC [10]: < 0.06 µg/mL

SMILES: O=C(N[C@H](CO)[C@H](O)c1ccc([N+](=O)[O-])cc1)C(Cl)Cl [CLM, Chloramphenicol]
- MIC (E. coli ΔtolC): 1.6 µg/mL (≈ 4.95 µM)
- Relative luciferase activity (relative maximal rate of Fluc accumulation) [2]: 21%
- Fold increase in the MIC value on E. coli ΔtolC pErmCL-ErmC compared to E. coli ΔtolC [3]: no changes in the MIC values
- MIC [3]: 1.6 µg/mL (≈ 4.95 µM)
- MIC [4]: 8 µg/mL (≈ 24.8 µM)
- MIC [5]: 8 µg/mL (≈ 24.8 µM)
- MIC [6, 11]: 4 µg/mL (≈ 12.4 µM)
- Ribosome stalling pattern on ermCL mRNA [8]: strong ribosome stalling when the Ser codon (AGU) occupies the E-site of the ribosome
- MIC (E. coli ΔtolC pERMZα): 1.6 µg/mL (≈ 4.95 µM)
- MIC (E. coli ΔtolC pErmC): 1.6 µg/mL (≈ 4.95 µM)

SMILES: CC[C@H]1OC(=O)[C@H](C)[C@@H](O[C@H]2C[C@@](C)(OC)[C@@H](OC(=O)NCCN)[C@H](C)O2)[C@H](C)[C@@H](O[C@@H]2O[C@H](C)C[C@H](N(C)C)[C@H]2OC(C)=O)[C@](C)(O)C[C@@H](C)CN(C)[C@H](C)[C@H]2OC(=O)O[C@@]21C [compound 6, 2′-O-Acetyl-4′′-O-((2-aminoethyl)carbamoyl)-11,12-cyclic carbonate of azithromycin]
- MIC (E. coli ΔtolC): 3.1 µg/mL (≈ 3.43 µM)
- Times weaker than the parental antibiotic (azithromycin), MIC (E. coli ΔtolC; toward E. coli strains (Table 4)): 2–4 times
- Kd (70S E. coli ribosomes): 6.5 nM and 6 nM
- Relative luciferase activity (relative maximal rate of Fluc accumulation) [2]: 46%
- MIC [3]: 6.3 µg/mL (≈ 6.98 µM)
- MIC [4]: 32 µg/mL (≈ 35.4 µM)
- MIC [5]: > 32 µg/mL
- MIC [6, 11]: > 32 µg/mL
- Ribosome stalling pattern on ermCL mRNA [8]: premature ribosome stalling at the first Phe codon (UUU)
- MIC (E. coli ΔtolC pERMZα): 3.1 µg/mL (≈ 3.43 µM)
- MIC (E. coli ΔtolC pErmC): > 200 µg/mL
